In paper PMC6166661 (Neuropeptides, 2018):

Legend:
[1] = test system: isoproterenol-stimulated lipolysis; assay: Acute effect on isoproterenol-stimulated lipolysis; assay type: in vivo, rat; details: rats
[2] = test system: C3aR1; details: ref Cianflone et al., 2003; Murray et al., 2000; cited from earlier work

CC(C)NCC(O)c1ccc(O)c(O)c1 (stereo not drawn) [isoproterenol]
change of plasma palmitate concentration during infusion ([1]; constant i.v. infusion 30 ng•min^−1, vs basal): more than doubled | plasma palmitate concentration at end of experiment, of the initial value ([1]; isoproterenol infusion plus saline bolus (control group)): ~ 75%

ASP: des-arginine peptide generated from C3a by cleaving the C-terminal arginine residue (R77)
activity at C3aR1 [2]: inactive
